Columns and labels:
Type in all cases: in vivo
[1] = tested on: SETVI, Green foxtail, Setaria viridis, (L.)Beau; test: Postemergence herbicidal evaluation (Example 147); conditions: rating scale 0-9, two to three weeks after treatment
How it was run: (§1)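 Visual 0-9 rating against an untreated control, scored roughly two to three weeks after a postemergence spray of two-week-old seedlings. Dose equivalent about 0.016 to 0.032 kg/ha, delivered in 80/20 acetone/water with 1.0% SUN-IT II at 40 psi.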

[2] = tested on: TRZAW, Winter wheat, Tritium Aestivum, L. (Winter); test: Postemergence herbicidal evaluation (Example 147); conditions: rating scale 0-9, two to three weeks after treatment
How it was run: as §1

[3] = tested on: IPOHE, Morningglory, Ivyleaf, Ipomoea hederacea, (L)Jacq.; test: Postemergence herbicidal evaluation (Example 147); conditions: rating scale 0-9, two to three weeks after treatment
How it was run: as §1

[4] = tested on: GLXMA, Soybean, Glycine max, (L.) Merr.; test: Postemergence herbicidal evaluation (Example 147); conditions: rating scale 0-9, two to three weeks after treatment
How it was run: as §1

[5] = tested on: AMBEL, Ragweed, Common, Ambrosia artemiisifolia, L.; test: Postemergence herbicidal evaluation (Example 147); conditions: rating scale 0-9, two to three weeks after treatment
How it was run: as §1

[6] = tested on: ECHCG, Barnyardgrass, Echinochloa crusgalli, (L.)Beau; test: Postemergence herbicidal evaluation (Example 147); conditions: rating scale 0-9, two to three weeks after treatment
How it was run: as §1

[7] = tested on: ABUTH, Velvetleaf, Abutilon theophrasti, Medic.; test: Postemergence herbicidal evaluation (Example 147); conditions: rating scale 0-9, two to three weeks after treatment
How it was run: as §1

[8] = tested on: ZEAMX, Field corn, Zea mays L.; test: Postemergence herbicidal evaluation (Example 147); conditions: rating scale 0-9, two to three weeks after treatment
How it was run: as §1

[9] = tested on: XANST, Cocklebur, Xanthium strumariam; test: Postemergence herbicidal evaluation (Example 147); conditions: rating scale 0-9, two to three weeks after treatment
How it was run: as §1

[10] = tested on: CHEAL, Lambsquarters, Chenopodium album, L. Common; test: Postemergence herbicidal evaluation (Example 147); conditions: rating scale 0-9, two to three weeks after treatment
How it was run: as §1

[11] = tested on: DIGSA, Crabgrass, (Hairy) L, Digitaria sanguinalis, (L)Scop; test: Postemergence herbicidal evaluation (Example 147); conditions: rating scale 0-9, two to three weeks after treatment
How it was run: as §1

[12] = tested on: ALOMY, Blackgrass, Alopecurus myosuroides; test: Postemergence herbicidal evaluation (Example 147); conditions: rating scale 0-9, two to three weeks after treatment
How it was run: as §1

[13] = tested on: SETVI, Green foxtail, Setaria viridis, (L.)Beau; test: Preemergence herbicidal evaluation (Example 148); conditions: rating scale 0-9, two to four weeks after treatment
How it was run: (§2)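 Visual scoring against control (stand, vigor, malformation, size, chlorosis, overall appearance) took place two to four weeks post-spray in the greenhouse. Compound in aqueous acetone was applied to freshly seeded soil cups at roughly 0.125–0.250 kg/ha. Values from multiple tests were averaged.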

[14] = tested on: TRZAW, Winter wheat, Tritium Aestivum, L. (Winter); test: Preemergence herbicidal evaluation (Example 148); conditions: rating scale 0-9, two to four weeks after treatment
How it was run: as §2

[15] = tested on: IPOHE, Morningglory, Ivyleaf, Ipomoea hederacea, (L)Jacq.; test: Preemergence herbicidal evaluation (Example 148); conditions: rating scale 0-9, two to four weeks after treatment
How it was run: as §2

[16] = tested on: GLXMA, Soybean, Glycine max, (L.) Merr.; test: Preemergence herbicidal evaluation (Example 148); conditions: rating scale 0-9, two to four weeks after treatment
How it was run: as §2

[17] = tested on: AMBEL, Ragweed, Common, Ambrosia artemiisifolia, L.; test: Preemergence herbicidal evaluation (Example 148); conditions: rating scale 0-9, two to four weeks after treatment
How it was run: as §2

[18] = tested on: ECHCG, Barnyardgrass, Echinochloa crusgalli, (L.)Beau; test: Preemergence herbicidal evaluation (Example 148); conditions: rating scale 0-9, two to four weeks after treatment
How it was run: as §2

[19] = tested on: ABUTH, Velvetleaf, Abutilon theophrasti, Medic.; test: Preemergence herbicidal evaluation (Example 148); conditions: rating scale 0-9, two to four weeks after treatment
How it was run: as §2

[20] = tested on: ZEAMX, Field corn, Zea mays L.; test: Preemergence herbicidal evaluation (Example 148); conditions: rating scale 0-9, two to four weeks after treatment
How it was run: as §2

[21] = tested on: XANST, Cocklebur, Xanthium strumariam; test: Preemergence herbicidal evaluation (Example 148); conditions: rating scale 0-9, two to four weeks after treatment
How it was run: as §2

[22] = tested on: CHEAL, Lambsquarters, Chenopodium album, L. Common; test: Preemergence herbicidal evaluation (Example 148); conditions: rating scale 0-9, two to four weeks after treatment
How it was run: as §2

[23] = tested on: DIGSA, Crabgrass, (Hairy) L, Digitaria sanguinalis, (L)Scop; test: Preemergence herbicidal evaluation (Example 148); conditions: rating scale 0-9, two to four weeks after treatment
How it was run: as §2

[24] = tested on: ALOMY, Blackgrass, Alopecurus myosuroides; test: Preemergence herbicidal evaluation (Example 148); conditions: rating scale 0-9, two to four weeks after treatment
How it was run: as §2

CN(CCC#N)S(=O)(=O)NC(=O)c1cc(-n2c(=O)cc(C(F)(F)F)n(C)c2=O)c(F)cc1Cl [Example 84]
6.0: Postemergence herbicidal rating DIGSA ([11]; rate 0.032 kg/ha) | Preemergence herbicidal rating ECHCG ([18]; rate 0.25 kg/ha)
9.0: Postemergence herbicidal rating IPOHE ([3]; rate 0.016 kg/ha) | Postemergence herbicidal rating IPOHE ([3]; rate 0.032 kg/ha) | Postemergence herbicidal rating AMBEL ([5]; rate 0.032 kg/ha) | Postemergence herbicidal rating ECHCG ([6]; rate 0.032 kg/ha) | Postemergence herbicidal rating ABUTH ([7]; rate 0.016 kg/ha) | Postemergence herbicidal rating ABUTH ([7]; rate 0.032 kg/ha) | Postemergence herbicidal rating XANST ([9]; rate 0.016 kg/ha) | Postemergence herbicidal rating XANST ([9]; rate 0.032 kg/ha) | Postemergence herbicidal rating CHEAL ([10]; rate 0.032 kg/ha) | Preemergence herbicidal rating IPOHE ([15]; rate 0.125 kg/ha) | Preemergence herbicidal rating IPOHE ([15]; rate 0.25 kg/ha) | Preemergence herbicidal rating AMBEL ([17]; rate 0.125 kg/ha) | Preemergence herbicidal rating AMBEL ([17]; rate 0.25 kg/ha) | Preemergence herbicidal rating ABUTH ([19]; rate 0.125 kg/ha) | Preemergence herbicidal rating ABUTH ([19]; rate 0.25 kg/ha) | Preemergence herbicidal rating XANST ([21]; rate 0.125 kg/ha) | Preemergence herbicidal rating XANST ([21]; rate 0.25 kg/ha) | Preemergence herbicidal rating CHEAL ([22]; rate 0.125 kg/ha) | Preemergence herbicidal rating CHEAL ([22]; rate 0.25 kg/ha)
8.5: Postemergence herbicidal rating GLXMA ([4]; rate 0.032 kg/ha)
2.0: Postemergence herbicidal rating ALMOY ([12]; rate 0.032 kg/ha) | Preemergence herbicidal rating TRZAW ([14]; rate 0.25 kg/ha) | Preemergence herbicidal rating GLXMA ([16]; rate 0.125 kg/ha)
7.0: Postemergence herbicidal rating SETVI ([1]; rate 0.016 kg/ha) | Postemergence herbicidal rating GLXMA ([4]; rate 0.016 kg/ha) | Postemergence herbicidal rating ZEAMX ([8]; rate 0.016 kg/ha) | Postemergence herbicidal rating CHEAL ([10]; rate 0.016 kg/ha) | Preemergence herbicidal rating SETVI ([13]; rate 0.125 kg/ha) | Preemergence herbicidal rating SETVI ([13]; rate 0.25 kg/ha) | Preemergence herbicidal rating GLXMA ([16]; rate 0.25 kg/ha) | Preemergence herbicidal rating DIGSA ([23]; rate 0.125 kg/ha)
0.0: Preemergence herbicidal rating TRZAW ([14]; rate 0.125 kg/ha) | Preemergence herbicidal rating ZEAMX ([20]; rate 0.125 kg/ha) | Preemergence herbicidal rating ALMOY ([24]; rate 0.125 kg/ha)
5.0: Postemergence herbicidal rating TRZAW ([2]; rate 0.016 kg/ha) | Postemergence herbicidal rating DIGSA ([11]; rate 0.016 kg/ha) | Preemergence herbicidal rating ECHCG ([18]; rate 0.125 kg/ha)
8.0: Postemergence herbicidal rating SETVI ([1]; rate 0.032 kg/ha) | Postemergence herbicidal rating AMBEL ([5]; rate 0.016 kg/ha) | Postemergence herbicidal rating ECHCG ([6]; rate 0.016 kg/ha) | Postemergence herbicidal rating ZEAMX ([8]; rate 0.032 kg/ha) | Preemergence herbicidal rating DIGSA ([23]; rate 0.25 kg/ha)
5.5: Postemergence herbicidal rating TRZAW ([2]; rate 0.032 kg/ha)
1.0: Postemergence herbicidal rating ALMOY ([12]; rate 0.016 kg/ha) | Preemergence herbicidal rating ZEAMX ([20]; rate 0.25 kg/ha) | Preemergence herbicidal rating ALMOY ([24]; rate 0.25 kg/ha)

Cn1c(C(F)(F)F)cc(=O)n(-c2cc(C(=O)NS(=O)(=O)NC3CCCC3)c(Cl)cc2F)c1=O [Example 78]
6.0: Postemergence herbicidal rating DIGSA ([11]; rate 0.032 kg/ha)
0.0: Preemergence herbicidal rating ZEAMX ([20]; rate 0.125 kg/ha)
4.0: Preemergence herbicidal rating ECHCG ([18]; rate 0.125 kg/ha) | Preemergence herbicidal rating DIGSA ([23]; rate 0.125 kg/ha)
9.0: Postemergence herbicidal rating SETVI ([1]; rate 0.032 kg/ha) | Postemergence herbicidal rating IPOHE ([3]; rate 0.016 kg/ha) | Postemergence herbicidal rating IPOHE ([3]; rate 0.032 kg/ha) | Postemergence herbicidal rating AMBEL ([5]; rate 0.016 kg/ha) | Postemergence herbicidal rating AMBEL ([5]; rate 0.032 kg/ha) | Postemergence herbicidal rating ECHCG ([6]; rate 0.032 kg/ha) | Postemergence herbicidal rating ABUTH ([7]; rate 0.016 kg/ha) | Postemergence herbicidal rating ABUTH ([7]; rate 0.032 kg/ha) | Postemergence herbicidal rating XANST ([9]; rate 0.016 kg/ha) | Postemergence herbicidal rating XANST ([9]; rate 0.032 kg/ha) | Postemergence herbicidal rating CHEAL ([10]; rate 0.032 kg/ha) | Preemergence herbicidal rating IPOHE ([15]; rate 0.125 kg/ha) | Preemergence herbicidal rating IPOHE ([15]; rate 0.25 kg/ha) | Preemergence herbicidal rating AMBEL ([17]; rate 0.125 kg/ha) | Preemergence herbicidal rating AMBEL ([17]; rate 0.25 kg/ha) | Preemergence herbicidal rating ABUTH ([19]; rate 0.125 kg/ha) | Preemergence herbicidal rating ABUTH ([19]; rate 0.25 kg/ha) | Preemergence herbicidal rating XANST ([21]; rate 0.125 kg/ha) | Preemergence herbicidal rating XANST ([21]; rate 0.25 kg/ha) | Preemergence herbicidal rating CHEAL ([22]; rate 0.125 kg/ha) | Preemergence herbicidal rating CHEAL ([22]; rate 0.25 kg/ha)
2.0: Postemergence herbicidal rating ALMOY ([12]; rate 0.016 kg/ha) | Postemergence herbicidal rating ALMOY ([12]; rate 0.032 kg/ha) | Preemergence herbicidal rating ALMOY ([24]; rate 0.25 kg/ha)
1.0: Preemergence herbicidal rating TRZAW ([14]; rate 0.125 kg/ha) | Preemergence herbicidal rating TRZAW ([14]; rate 0.25 kg/ha) | Preemergence herbicidal rating ZEAMX ([20]; rate 0.25 kg/ha) | Preemergence herbicidal rating ALMOY ([24]; rate 0.125 kg/ha)
6.5: Postemergence herbicidal rating TRZAW ([2]; rate 0.032 kg/ha) | Postemergence herbicidal rating ZEAMX ([8]; rate 0.016 kg/ha)
8.0: Postemergence herbicidal rating SETVI ([1]; rate 0.016 kg/ha) | Postemergence herbicidal rating GLXMA ([4]; rate 0.032 kg/ha) | Postemergence herbicidal rating ECHCG ([6]; rate 0.016 kg/ha) | Preemergence herbicidal rating DIGSA ([23]; rate 0.25 kg/ha)
7.0: Postemergence herbicidal rating GLXMA ([4]; rate 0.016 kg/ha) | Postemergence herbicidal rating ZEAMX ([8]; rate 0.032 kg/ha) | Postemergence herbicidal rating CHEAL ([10]; rate 0.016 kg/ha) | Preemergence herbicidal rating SETVI ([13]; rate 0.25 kg/ha) | Preemergence herbicidal rating ECHCG ([18]; rate 0.25 kg/ha)
5.0: Postemergence herbicidal rating DIGSA ([11]; rate 0.016 kg/ha) | Preemergence herbicidal rating SETVI ([13]; rate 0.125 kg/ha) | Preemergence herbicidal rating GLXMA ([16]; rate 0.25 kg/ha)
3.0: Preemergence herbicidal rating GLXMA ([16]; rate 0.125 kg/ha)
5.5: Postemergence herbicidal rating TRZAW ([2]; rate 0.016 kg/ha)

Source: US6689773B2, “Uracil substituted phenyl sulfamoyl carboxamides” (BASF Aktiengesellschaft, priority 2000, dated 2004)
